# In PMC2374418, “A prolonged methoxymorpholino doxorubicin (PNU-152243 or MMRDX) infusion schedule in patients with solid tumours: a phase 1 and pharmacokinetic study” (British Journal of Cancer, 2000):
# Legend:
# [1] = system: patients with intrinsic anthracycline-resistant tumours; experiment: Phase I toxicity (CTC grading), MMRDX as 3 h intravenous infusion once every 4 weeks
# Text: Nowadays, anthracyclines play an important role in chemothera- peutic treatment of a wide variety of tumour types. The clinical use of anthracyclines is limited by their toxicity profile, especially irreversible, cumulative dose-related cardiotoxicity, and by intrinsic or acquired resistance of tumours cells. Mechanisms of this resistance consist of several pathways, such as overexpression of drug efflux pumps (i.e. P-glycoprotein), decrease in topoiso- merase II enzyme levels, and increase in cellular detoxifying capacity (Kaye and Merry, 1985; Deffie et al, 1989; de Jong et al, 1990; Ford and Hait, 1990; Roninson, 1997). Morpholinyl anthracyclines, such as methoxymorpholino doxorubicin (MMRDX or PNU-152243), were synthesized in search for new anthracyclines with at least partially novel modes of action, including activity on multidrug-resistant (MDR) tumours. MMRDX is a novel doxorubicin derivative in which the nitrogen atom of the daunosamine is enclosed in a methoxymor- pholino ring (Figure 1). […] The working mechanism of morpholinyl anthracyclines appears to be different from other anthracyclines. Morpholinyl anthracyclines inhibit ribosomal gene transcription as well as topoisomerase I-mediated DNA-cleavage (Wassermann et al, 1988, 1990). […] Metabolic conversion of MMRDX by human liver microsomes and NADPH potentiated the cytotoxicity in an ovarian carcinoma cell line (Lau et al, 1994). […] Therefore, we decided to perform a phase I study with MMRDX administered as a 3 h infusion every 4 weeks in order to try to increase the MTD as compared with bolus administration. In addition, we assessed pharmacokinetics of prolonged MMRDX-infusion. A prolonged methoxymorpholino doxorubicin (PNU- 152243 or MMRDX) infusion schedule in patients with solid tumours: a phase 1 and pharmacokinetic study E Fokkema1 , J Verweij2 , AT van Oosterom3 , DRA Uges1 , R Spinelli4 , O Valota4 , EGE de Vries1 and HJM Groen1 1 Department of Pulmonology, Department of Pharmacy, Department of Internal Medicine, University Hospital Groningen, PO Box 30.001, 9700 RB Groningen, The Netherlands; 2 Rotterdam Cancer Institute and University Hospital, Rotterdam, The Netherlands; 3 University Hospital Leuven, Belgium; 4 Pharmacia & Upjohn, Milan, Italy Summary The aim of this phase I study was to assess feasibility, pharmacokinetics and toxicity of methoxymorpholino doxorubicin (MMRDX or PNU-152243) administered as a 3 h intravenous infusion once every 4 weeks. […] The first cohort of patients was treated with 1 mg m-2 of MMRDX. The next cohorts received 1.25 mg m-2 and 1.5 mg m-2 respectively. […] (c) 2000 Cancer Research Campaign Keywords: methoxymorpholino doxorubicin; pharmacokinetics; phase I study 767 Received 6 January 1999 Revised 2 August 1999 Accepted 25 August 1999 Correspondence to: EGE de Vries British Journal of Cancer (2000) 82(4), 767-771 (c) 2000 Cancer Research Campaign DOI: 10.1054/ bjoc.1999.0996, available online at http://www.idealibrary.com on PATIENTS AND METHODS Patients The study was performed between December 1994 and June 1996. Patients with intrinsic anthracycline-resistant tumours were accrued in three different centres in Belgium and The Netherlands.
# [2] = parameters: method as in ref Johnston and Glazer, 1983; Acton et al, 1984; Streeter et al, 1986; conditions: ref Johnston and Glazer, 1983; Acton et al, 1984; Streeter et al, 1986; cited from earlier work
# MDR xenografts = system: MDR xenografts; parameters: method as in Ripamonti et al, 1992; conditions: animal studies, ref Ripamonti et al, 1992; cited from earlier work
smiles,measurement,setting,value
"COc1cccc2c1C(=O)c1c(O)c3c(c(O)c1C2=O)C[C@@](O)(C(=O)CO)C[C@@H]3O[C@H]1C[C@H](N2CCO[C@H](OC)C2)[C@H](O)[C@H](C)O1 [MMRDX, methoxymorpholino doxorubicin]",Median (range) nadir of neutrophils over all evaluable cycles,[1]; 1.25 mg m-2,1.9 (0.5-8.3) x 109 l-1
same,Median (range) nadir of platelets over all evaluable cycles,[1]; 1.25 mg m-2,190 (60-328) x 109 1-1
same,"Nausea, vomiting and diarrhoea exceeding grade II",[1]; 1.25 mg m-2,one cycle
same,Transient elevations in total bilirubin reaching CTC grade II,[1]; 1.25 mg m-2,2/15
same,"Leucocytes, CTC grade III toxicity","[1]; 1.25 mg m-2, 17 cycles",6 % of total number of cycles
same,"Leucocytes, CTC grade IV toxicity","[1]; 1.25 mg m-2, 17 cycles",0 % of total number of cycles
same,"Neutrophils, CTC grade III toxicity","[1]; 1.25 mg m-2, 17 cycles",0 % of total number of cycles
same,"Neutrophils, CTC grade IV toxicity","[1]; 1.25 mg m-2, 17 cycles",0 % of total number of cycles
same,"Platelets, CTC grade III toxicity","[1]; 1.25 mg m-2, 17 cycles",0 % of total number of cycles
same,"Platelets, CTC grade IV toxicity","[1]; 1.25 mg m-2, 17 cycles",0 % of total number of cycles
same,Patients with grade III/IV haematological toxicity,"[1]; 1.25 mg m-2, six patients treated",one patient
same,Death with neutropenic fever / sepsis during febrile neutropenia,[1]; 1.5 mg m-2,One patient
same,Grade III/IV fatigue,[1]; 1.5 mg m-2,one out of 11 cycles
same,Grade III/IV infection,[1]; 1.5 mg m-2,four out of 11 cycles
same,Median (range) nadir of leucocytes over all evaluable cycles,[1]; 1.5 mg m-2,1.4 (0.2-7.5) x 109 l-1
same,Median (range) nadir of neutrophils over all evaluable cycles,[1]; 1.5 mg m-2,0.5 (0.2-7.3) x 109 l-1
same,Median (range) nadir of platelets over all evaluable cycles,[1]; 1.5 mg m-2,55 (8-119) x 109 1-1
same,Nausea and vomiting exceeding grade II,[1]; 1.5 mg m-2,two out of 11 cycles
same,Patients with grade III/IV haematological toxicity,[1]; 1.5 mg m-2,all five patients
same,Transient elevations in total bilirubin reaching CTC grade II,[1]; 1.5 mg m-2,3/11
same,"Neutrophils, CTC grade III toxicity","[1]; 1.5 mg m-2, 7 cycles",29 % of total number of cycles
same,"Neutrophils, CTC grade IV toxicity","[1]; 1.5 mg m-2, 7 cycles",43 % of total number of cycles
same,"Platelets, CTC grade III toxicity","[1]; 1.5 mg m-2, 9 cycles",22 % of total number of cycles
same,"Platelets, CTC grade IV toxicity","[1]; 1.5 mg m-2, 9 cycles",11 % of total number of cycles
same,"Leucocytes, CTC grade III toxicity","[1]; 1.5 mg m-2, 10 cycles",40 % of total number of cycles
same,"Leucocytes, CTC grade IV toxicity","[1]; 1.5 mg m-2, 10 cycles",30 % of total number of cycles
same,Cycles reduced from 1.5 mg m-2 to 1.25 mg m-2 because of haematological toxicity,"[1]; 1.5 mg m-2, three out of five patients",Four out of 11 cycles
same,Patients with neutropenic fever,[1]; 3 h i.v. infusion,Three patients
same,Maximum tolerated dose (MTD),[1]; 3 h i.v. infusion every 4 weeks,1.25 mg m-2
same,CTC grade III/IV nausea and vomiting,"[1]; 3 h i.v. infusion, 1.25 mg m-2",1/18
same,Transient elevation in transaminases up to CTC grade III,"[1]; 3 h i.v. infusion, 1.25 mg m-2",2/16
same,CTC grade III neutropenia,"[1]; 3 h i.v. infusion, 1.5 mg m-2",2/7
same,CTC grade III/IV nausea and vomiting,"[1]; 3 h i.v. infusion, 1.5 mg m-2",2/11
same,CTC grade IV neutropenia,"[1]; 3 h i.v. infusion, 1.5 mg m-2",3/7
same,Thrombocytopenia grade III,"[1]; 3 h i.v. infusion, 1.5 mg m-2",2/9
same,Thrombocytopenia grade IV,"[1]; 3 h i.v. infusion, 1.5 mg m-2",1/9
same,Transient elevation in transaminases up to CTC grade III,"[1]; 3 h i.v. infusion, 1.5 mg m-2",4/11
same,Cardiotoxicity,"[1]; 3 h i.v. infusion, all dose levels",No cardiotoxicity
same,LVEF at the end of treatment in eight patients,[1]; after two to six cycles,No significant decreases
same,Grade III/IV toxicity for haemoglobin,[1]; all dose levels,No grade III/IV toxicity
same,"Phlebitis at the infusion site, nephro- and neurotoxicity",[1]; all dose levels,No phlebitis at the infusion site and no nephro- or neurotoxicity
same,Start of late nausea and vomiting,[1]; all dose levels,around 4 days after treatment
same,"Decrease in LVEF, one patient","[1]; highest dose level, after three cycles, LVEF remained in the normal range",13%
same,Time of late haematological toxicity,[1]; main toxicity,~22 day
same,Cumulative haematological toxicity for subsequent cycles,[1]; overall,"no cumulative haematological toxicity for subsequent cycles, except for platelets at the highest dose level"
same,Lipophilicity,[2],high lipophilicity
same,Activity against MDR xenografts,MDR xenografts,showed activity
